How the values were obtained:
hemoglobin (Hb) α-helix = target: T1, hemoglobin (Hb) α-helix (Homo sapiens, UniProt P68871+P69905); assay: Circular dichroism (CD) influences of β-elemene on Hb structure; conditions: Hb 5 μM, BE 1.00-6.25 μM, 25° C.; effect increases with BE concentration; FIG. 10
T1 construct: purchased Sigma H7379
Description: A circular dichroism spectrum technology (CD) was used to determine the influences of β-elemene on Hb structure.
Hb mainly presents α-helix at 200-250 nm. If the α-helix structure is changed, so do the shape of CD curve at 200-250 nm. The α-helix content of Hb at 222 nm may be calculated according to the equation (1): […]
The mean residue ellipticity (MRE) (degcm^2/dmol) is calculated according to the equation (2): […]
where, Cp is molar concentration (mM) of Hb; n is the number of amino acid residues; l is optical path (mm).
Preparation of a PBS solution: a proper amount of PBS buffer solution was taken and added a small amount of Tween 80, then prepared into a PBS solution containing 0.05% Tween 80.
Preparation of a Hb solution: a proper amount of Hb was weighed precisely and added a proper amount of PBS containing 0.05% Tween 80, then prepared into Hb having a concentration of 30 μM for further use. […]
(2) each concentration of sample was placed into a quartz sample pool from small to large (during solution exchange, the sample pool was cleaned by PBS and rinsed with the to-be-detected solution), then the sample pool was put to the sample chamber for detection in turn, and each sample was screened by spectrum for 3 times; […]

hemoglobin (Hb) [1] = target: T2, hemoglobin (Hb) (Homo sapiens, UniProt P68871+P69905); assay: Surface plasmon resonance (SPR) interaction between β-elemene and hemoglobin; type: binding; conditions: Hb coupled on chip, BE 0.78-100.00 μM, FIGS. 8-9
T2 construct: purchased Sigma H7379
Description: Surface plasmon resonance (SPR) technology was used to verify the interaction between β-elemene and hemoglobin. […] It is generally acknowledged that KD of binding protein to small molecules has an acceptable scope of 10^−4-10^−6M.
(1) Preparation of a Hb solution: a proper amount of Hb was weighed precisely and prepared into a solution having a concentration of 1 mg/mL with ultrapure water, then 20-fold diluted by pH 4.5 acetic acid for further use;
(2) PBS-P+10× was prepared into PBS-P+2.1× with ultrapure water, then a proper amount of DMSO was taken and prepared into PBS 2× containing 5% DMSO+0.1% Tween 20, and filtered for further use;
(3) A proper amount of BE reference substances were weighed precisely and dissolved into DMSO to be prepared into 10 mM solution, then the solution was diluted with PBS-P+2.1× to a reference substance solution containing 5% DMSO; and then the reference substance solution was diluted successively by 2× PBS-P+ to 100.00 μM, 50.00 μM, 25.00 μM, 12.50 μM, 6.25 μM, 3.12 μM. 1.56 μM and 0.78 μM and vortexed for 1 min, and then filtered by 0.22 μm filter membrane for further use.
(1) Chip activation: carboxyl (channels 1 and 2) on a chip was activated by EDC/NHS;
(2) the channel 2 was selected and coupled to a certain amount of Hb;
(3) the activated carboxyl not coupled to proteins on the chip was blocked by ethanolamine; […]

SD male rats = assay: Influences of β-elemene on blood gas when causing dyspnea of rats (abdominal aortic blood, blood-gas analyzer); type: in vivo, rat; conditions: BE 1.5 mg/mL
Description: Preparation of a BE solution: BE reference substances were precisely weighed and dissolved by 8.8% Tween 80 solution and prepared into a BE solution having a concentration of 1.5 mg/mL.
12 pieces of SPF-grade SD male rats (6 weeks of age, weight: 200±25 g) were taken; and these rats were purchased from Beijing Vital River Laboratory Animal Technology Co., Ltd, production license number: SCXK (J.) 2016-0006.Animal experiments involved in the research process were approved by Ethics Committee. The feeding conditions of the experimental rats are as follows: standard illumination-dark period is 12 h, temperature is 22±1° C., and relative humidity is 60±5%.
The rats were randomly divided into 2 groups, 6 pieces each group. The rats were adaptively fed with common fodders for one week. Then the rats were subjected to overnight fasting (12 h), and then intraperitoneally injected with chloral hydrate (10 mg/mL, 4 mL/kg) for anesthetization. After anesthetization, the two groups were respectively injected with BE and normal saline via caudal vein with an administration volume of 6 mL/kg.
After administration, abdominal aortic blood was taken and immediately analyzed with a blood-gas analyzer.

hemoglobin (Hb) [2] = target: T2, hemoglobin (Hb); assay: UV absorbance of hemoglobin after interaction with sample (r value, dyspnea risk evaluation)
Description: Preparation of Hb solution: a proper amount of Hb was precisely weighed and dissolved by normal saline (ultrasonic treatment for 30 s), and prepared into a solution having a concentration of 2 mg/mL.
Preparation of a BE solution: BE reference substance is precisely weighed and dissolved by 8.8% Tween 80 solution and prepared into a solution having a concentration of 1.5 mg/mL.
100 μL Hb solution was added to wells of a 96-well plate, and 100 μL BE sample solution, 100 μL 8.8% Tween 80 solution or 100 μL normal saline (as blank control) were successively added to the wells added with Hb solution. Each sample was repeated with 3 wells; then the microwell plate was covered, and the mixed solution was oscillated for 5 s in an oscillator to be mixed well, standing for 10 min at 25° C. A microplate reader was used for detection, and detection conditions were as follows: spectrum scanning was performed at 37° C. and 230-400 nm with a step size of 5 nm. […]
Where, OD is an absorbance value of a to-be-detected sample containing sesquiterpenoids in zedoary turmeric oil at a certain concentration at 280 nm after interacting with Hb; ODHb is an absorbance value of normal saline as a blank control at a wavelength of 280 nm after interacting with Hb; r is a ratio of OD to ODHb.

T2 sequence (P69905 2-142 limits assumed): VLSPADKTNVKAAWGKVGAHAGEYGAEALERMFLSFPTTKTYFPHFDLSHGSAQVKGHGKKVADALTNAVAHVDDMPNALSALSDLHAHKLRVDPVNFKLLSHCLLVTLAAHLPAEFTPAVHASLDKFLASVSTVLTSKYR
T2 sequence (P68871 2-147 limits assumed): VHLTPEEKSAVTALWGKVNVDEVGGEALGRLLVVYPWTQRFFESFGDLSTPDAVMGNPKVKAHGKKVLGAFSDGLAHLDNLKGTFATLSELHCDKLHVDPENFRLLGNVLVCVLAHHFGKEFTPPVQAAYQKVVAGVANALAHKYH
T1 sequence (P69905 2-142 limits assumed): as the sequence (P69905 2-142 limits assumed) above
T1 sequence (P68871 2-147 limits assumed): as the sequence (P68871 2-147 limits assumed) above

In the case of C=C[C@]1(C)CC[C@@H](C(=C)C)C[C@H]1C(=C)C [BE, (1S, 2S, 4R)-1-vinyl-methyl-2,4-di(1-methylvinyl) cyclohexane], the “effect on Hb α-helix (CD curve at 200-250 nm)” value (hemoglobin (Hb) α-helix) is reported as “makes Hb α-helix performing helix removal”, the Kd (hemoglobin (Hb) [1]) is reported as 5.84 µM and the “partial pressure of arterial oxygen” value (SD male rats; 6 mL/kg via caudal vein vs normal saline, FIG. 2) is reported as “significantly decrease”. For the same compound, the “arterial partial pressure of carbon dioxide” value (SD male rats; 6 mL/kg via caudal vein vs normal saline, FIG. 3) was “significantly decreases”, the “arterial blood pH” value (SD male rats; 6 mL/kg via caudal vein vs normal saline, FIG. 4) was “no significant change” and the arterial oxygen saturation (SD male rats; 6 mL/kg via caudal vein vs normal saline, FIG. 5) was “significantly decrease”. For the same compound, the total hemoglobin (SD male rats; 6 mL/kg via caudal vein vs normal saline, FIG. 6) was “significantly increases”, the oxyhemoglobin (SD male rats; 6 mL/kg via caudal vein vs normal saline, FIG. 7) was “significantly decreases” and the “observed symptoms after administration” value (SD male rats; 6 mL/kg via caudal vein, recovery after stopping administration) was “suffered dyspnea symptoms”. The “Hb absorbance within 260-300 nm” value (hemoglobin (Hb) [2]; 1.5 mg/mL BE solution + 2 mg/mL Hb, 100 μL each, FIG. 11) was “significantly increasing” and the “r (ratio of OD to ODHb at 280 nm)” value (hemoglobin (Hb) [2]; 1.5 mg/mL BE solution, r>1.5 indicates high risk of dyspnea) was “≈ 1.8”.

Source: patent US20230251203A1, “METHOD FOR EVALUATING ADVERSE REACTION OF SESQUITERPENOIDS IN ZEDOARY TURMERIC OIL” (BEIJING FRIENDSHIP HOSPITAL, CAPITAL MEDICAL UNIVERSITY, priority 2021, published 2023)
